One assay addresses T1, PLK1 (Wild Type) (Homo sapiens, UniProt P53350).
T1 construct: the N terminus of a full-length cDNA of a wild type PLK1 is fused with GST; purchased Carna Biosciences Inc; host or cells: insect cell (baculovirus)
The assay is described as follows: Inhibitory effect against PLK1 activity (Method B), PLK1 wild type, [γ-33P]ATP peptide phosphorylation. It counts as biochemical. The settings on record: 10 μM ATP, 20 μM substrate peptide, 25° C., 120 minutes. The text has this:
2. Measurement of Inhibitory Effect against PLK1 Activity (Method B)
Human PLK1 was purchased from Carna Biosciences Inc. According to the Product Information from Carna Biosciences Inc., the present enzyme is an enzyme obtained by preparing a baculovirus for which the N terminus of a full-length cDNA of a wild type PLK1 is fused with GST (glutathione S-transferase), followed by highly expressing PLK1 transfected into an insect cell as a GST-fused protein, and then carrying out a purification with the use of glutathione sepharose chromatography.
For the measurement of the PLK1 activity, a synthetic peptide (arginine-arginine-arginine-aspartic acid-glutamic acid-leucine-methionine-glutamic acid-alanine-serine-phenylalanine-alanine-aspartic acid-glutamine-glutamic acid-alanine-lysine-valine) (SEQ. ID. NO.: 1) in which the serine surrounding sequence of the amino acid sequence No. 198 of CDC25C having been reported as the site for PLK1 substrate [EMBO Report, 3rd edition, 341 (2002)] is altered, was used as a substrate for the PLK1.
The reaction was carried out in accordance with the method as described by Toyoshima-Morimoto et al. [Nature, Vol. 410, 215-220, (2001)]. The volume of the reaction solution was 10.5 μl and the composition of the reaction buffer was a 20 mM Tris-HCl buffer (pH 7.4)/10 mM magnesium chloride/0.5 mM dithiothreitol/1 mM EGTA (ethylene glycol-bis (beta-aminoethylether-N,N,N′,N′-tetraacetic acid). Thereto, purified PLK1, 20 μM of the substrate peptide, 10 μM of non-labeled adenosine triphosphate (ATP), and 0.3 μCi [γ-^33P]-labeled ATP (>2500 Ci/mmole) were added to perform the reaction at a reaction temperature of 25° C. for 120 minutes. Thereafter, 20 μI of a 350 mM phosphate buffer was added to the reaction system to terminate the reaction, and the resultant solution was spotted onto a multi-screen phosphocellulose filter on a 384-well plate. After the phosphocellulose filter is washed with a 75 mM phosphate buffer and then dried, the radioactivity was measured with a liquid cintillation counter. The non-labeled and [γ-^33P]-labeled ATPs, and the multi-screen phosphocellulose filter were purchased from GE Healthcare Bio-Sciences, and Millipore Corporation, respectively.
Addition of the compound of the present invention to the reaction system was carried out by adding 0.5 μl of the solution prepared by preliminarily dissolving the compound in dimethylsulfoxide at a 20-fold concentration of the final concentration. A control was provided by adding 0.5 μl of dimethylsulfoxide to the reaction system.

In the next assay the test system is HeLaS3 cells. Put plainly: Inhibitory effect against cell proliferation: PLK1 inhibition at cellular level (M phase arrest, phospho-histone H3). The settings on record: Homo sapiens, HeLa S3, 18 hours after addition, concentration inducing 50% of maximum ratio of cells arrested at M phase (histone H3 Ser10 phosphorylation). It counts as cell-based. As for the experimental part: 3. Measurement of the Inhibitory Effect against Cell Proliferation: Measurement of the Inhibitory Activity Against PLK1 at Cellular Level
For the measurement of the PLK 1 inhibitory activity of the compound at a cellular level, human uterine cervix cancer cell lines HeLaS3 cells were used. The HeLaS3 cell was obtained from American Type Culture Collection (ATTC), and cultured in a CO2-incubator of saturated steam by using Dulbecco's Modified Eagle's Medium containing 10% fetal calf serum at 37° C. in the presence of 5% CO2.
It has been reported that PLK 1 plays an important role in various stages of mitotic phase (M-phase) in mammalian cells (Nature Review Molecular Cell Biology (Nat. Rev. Mol. Cell. Biol.), Vol. 5, 429, (2004)). In fact, when mammalian cells are treated with PLK 1 siRNA to control the expression level, the cell cycle progression is inhibited and thus the cells are arrested at M phase. At the time, when the phosphorylation level of 10th serine residue on histone H3, which is thought to be required for a chromosome condensation in M phase, is examined, then it is observed that the level is enhanced to a high level. Thus, after treating the cells with the compound according to the invention, the phosphorylation level of histone H3 was examined by the indirect fluorescent antibody technique; the M phase cells were identified by using the level thereof as an indicator to analyze the ratio of cells arrested at M phase; and further EC50 value of each compound was calculated to evaluate the PLK1 inhibitory activity at a cellular level.
First, HeLaS3 cells were seeded into a lysine-treated 96-well plate (Falcon Corp.) in the proportion of 3,000 per one well, and allowed to stand still in the above-mentioned CO2 incubator. 24 hours after the seeding, the compound according to the invention, which is diluted in series, was added into each well of the plate, and further allowed to stand still in the CO2 incubator. 18 hours after the addition of the compound according to the invention, the culture medium containing the compound according to the invention in each well of the plate was removed, and then 100 μL of ice-cold 100% methanol (Wako Pure Chemical Industries, Ltd.) was added, to carry out cell fixation for 10 minutes and treatment of increasing the membrane permeability. Subsequently, to the wells in which the methanol was removed, 50 μL of 1% BSA/PBS was added, and then blocking was carried out for 30 minutes. Thereafter, for the primary antibody reaction, 50 μL of 1% BSA/PBS containing a […] Anti-phospho Histone H3 (Ser10) antibody (Upstate Corp.) was added to the wells, and the plate was left over at room temperature for 90 minutes. After terminating the reaction, each well was once washed with PBS; and for the second antibody reaction, 50 μL of 1% BSA/PBS containing […] Cy5-labelled antirabbit IgG (H+L) antibody (Chemicon) and 10 ug/mL DAPI (Sigma) which is a nucleus staining regent, was added, and further left over at room temperature for 90 minutes. After terminating the reaction, the reaction solution in wells was removed and replaced with 100 μL of PBS, and then fluorescence images were captured by using IN Cell Analyzer 1000 (manufactured by GE Amersham) to analyze the ratio of M phase cells (Mitotic index) in each view. When the maximum value of the ratio of cells arrested at M phase which can be induced by each drug is assumed as 100%, the drug concentration required for inducing 50% out of that 100% is defined as EC50.

Another assay deals with T2, PLK1-T210D (Homo sapiens, UniProt P53350, T210D).
T2 construct: GST (N, cleaved yes); made in house; host or cells: Spodoptera frugiperda Sf9 insect cells (baculovirus)
The assay is described as follows: Inhibitory effect against PLK1 activity (Method A), PLK1-T210D, [γ-33P]ATP peptide phosphorylation. It is filed as biochemical. The settings on record: 50 μM ATP, 50 μM substrate peptide, 25° C., 20 minutes. The text has this: 1. Measurement of the Inhibitory Effect against PLK 1 Activity (Method A)
It has been known that 210th codon of human PLK1 which originally codes for threonine can be changed to an active type by altering the site into aspartic acid [Molecular and Cell Biology (Mol. Cell. Biol.), 17th edition, 3408 (1997)]. In order to obtain a human active type PLK1 protein, cDNA of mutated PLK1 (PLK1-T210D) of which the 210th codon codes for aspartic acid by substituting a base in the 210th codon of human PLK1 cDNA, was prepared. A baculovirus for which the N terminus of the PLK1-T210D cDNA is fused with GST (glutathione S-transferase) was prepared, and then the PLK1-T210D transfected into a Spodoptera frugiperda (Sf) 9 insect cell was highly expressed as a GST-fused protein. The cells were recovered and suspended in a lysis buffer (50 mM tris-hydrochloric acid buffer (pH 7.4)/150 mM sodium chloride/1 mM EDTA (ethylenediamine tetraacetic acid)/1 mM dithiothreitol/0.1% polyoxyethylene sorbitan monolaurate) to break cells with sonicator, and supernatant was recovered after a centrifugation. The supernatant was reacted on glutathione sepharose beads, and then the beads were washed with a lysis buffer. Thereafter, the beads were reacted in a lysis buffer containing Precision Protease (available from GE Healthcare Bioscience Company) to recover supernatant. […]
The reaction was carried out in accordance with the method of Toyoshima-Morimoto et al. [Nature, Vol. 410, 215-220, (2001)]. […] After washing the phosphocellulose filter with 75 mM phosphate buffer, the filter was dried to measure the radioactivity with a liquid scintillation counter. […]

pEC50, pIC50: −log10 of the molar value.

Results on 10 compounds are retold here after patent US7977336B2, “Aminopyrimidine derivatives as PLK1 inhibitors” (Banyu Pharmaceutical Co. Ltd, priority 2006, dated 2011).

T1 sequence (P53350 whole entry, the tested form may be a part): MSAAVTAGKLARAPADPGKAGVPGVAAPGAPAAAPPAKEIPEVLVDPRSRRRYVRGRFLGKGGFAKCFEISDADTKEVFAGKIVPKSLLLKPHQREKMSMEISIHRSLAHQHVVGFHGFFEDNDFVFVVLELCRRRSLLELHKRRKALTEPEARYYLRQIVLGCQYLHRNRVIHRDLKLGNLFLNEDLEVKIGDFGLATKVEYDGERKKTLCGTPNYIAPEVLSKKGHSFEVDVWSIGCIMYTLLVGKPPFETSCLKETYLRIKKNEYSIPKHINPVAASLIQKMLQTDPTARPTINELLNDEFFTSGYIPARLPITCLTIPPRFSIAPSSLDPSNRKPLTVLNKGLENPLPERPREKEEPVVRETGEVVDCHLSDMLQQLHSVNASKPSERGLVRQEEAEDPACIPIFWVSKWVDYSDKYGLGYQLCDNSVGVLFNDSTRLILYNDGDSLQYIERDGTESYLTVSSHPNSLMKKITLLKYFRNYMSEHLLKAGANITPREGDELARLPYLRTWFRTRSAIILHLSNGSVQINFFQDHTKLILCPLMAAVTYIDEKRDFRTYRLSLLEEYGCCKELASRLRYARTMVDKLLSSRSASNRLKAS
T2 sequence (P53350 whole entry T210D): as the sequence (P53350 whole entry, the tested form may be a part) above, with T210D counted along it

A word on the pIC50: it is the IC50 on a negative log10 scale, so that one unit is a factor of ten. Read a high pIC50 as a low IC50. By pEC50 is commonly meant the EC50 on a negative log10 scale, so that one unit is a factor of ten. At PLK1 (Wild Type), `Cc1cnc(N[C@@H](C)c2ccc([C@H](O)CNC(C)(C)C)cc2)nc1-c1cnc2c(C3CC3)cccn12` [Example 73, (1S)-2-(tert-butylamino)-1-[4-((1S)-1-{[4-(8-cyclopropylimidazo[1,2-a]pyridin-3-yl)-5-methylpyrimidin-2-yl]amino}ethyl)phenyl]ethanol] showed a pIC50 of 8.00. Moreover, in the assay with HeLaS3 cells, the pEC50 is 8.24.
Compound `CC(C)N1CC(C(O)c2ccc([C@H](C)Nc3ncc(F)c(-c4cnc5c(Cl)cccn45)n3)cc2)C1` (single isomer, unassigned) [Example 89] showed a negative-log IC50 (pIC50) on PLK1 (Wild Type) of 8.62. Further, in the assay on HeLaS3 cells, the pEC50 is 7.86.
For `CCc1cccn2c(-c3nc(N[C@@H](C)c4ccc(C(O)C5CCN(C)CC5)cc4)ncc3C#N)cnc12` (single isomer, unassigned) [Example 24], the pIC50 against PLK1 (Wild Type) is 8.85; at PLK1-T210D, 8.39. The pEC50 in the assay with HeLaS3 cells was 8.34.
Take `CCc1cccn2c(-c3nc(N[C@@H](C)c4ccc([C@H](O)CNC(C)(C)C)cc4)ncc3C#N)cnc12` [Example 5, 2-[((1S)-1-{4-[(1S)-2-(tert-butylamino)-1-hydroxyethyl]phenyl}ethyl)amino]-4-(8-ethylimidazo[1,2-a]pyridin-3-yl)pyrimidine-5-carbonitrile]: the pIC50 against PLK1 (Wild Type) is 8.64. In the assay on HeLaS3 cells, the pEC50 is 8.59.
Taken in the same sequence, the figures for `C[C@H](Nc1ncc(F)c(-c2cnc3c(Cl)cccn23)n1)c1ccc(C(O)C(C)(C)N(C)C)cc1` (single isomer, unassigned) [Example 85] were 8.47 and 7.96.
For `C[C@H](Nc1ncc(F)c(-c2cnc3c(Cl)cccn23)n1)c1ccc([C@H](O)CNC2(C)CCCC2)cc1` [Example 71, (1S)-1-[4-((1S)-1-{[4-(8-chloroimidazo[1,2-a]pyridin-3-yl)-5-fluoropyrimidin-2-yl]amino}ethyl)phenyl]-2-[(1-methylcyclopentyl)amino]ethanol], in that order: 8.66 and 8.46.
Taken in the same sequence, the figures for `C[C@H](Nc1ncc(F)c(-c2cnc3c(Cl)cccn23)n1)c1ccc([C@H](O)CNC(C)(C)C)cc1` [Example 67, (1S)-2-(tert-butylamino)-1-[4-((1S)-1-{[4-(8-chloroimidazo[1,2-a]pyridin-3-yl)-5-fluoropyrimidin-2-yl]amino}ethyl)phenyl]ethanol] were 8.59 and 8.40.
Take `CCc1cccn2c(-c3nc(N[C@@H](C)c4ccc(C(O)[C@@H]5CCCN(C)C5)cc4)ncc3C#N)cnc12` (single isomer, unassigned) [Example 43]: the values for the pIC50 against PLK1 (Wild Type) and at PLK1-T210D were 8.85 and 8.15, respectively. In addition, the pEC50 in the assay on HeLaS3 cells is 8.40.
`CCc1cccn2c(-c3nc(N[C@@H](C)c4ccc(C(O)[C@H]5CCCN5C)cc4)ncc3C#N)cnc12` (stereo partly drawn) [Example 55, 4-(8-ethylimidazo[1,2-a]pyridin-3-yl)-2-{[(1S)-1-(4-{hydroxy[(2R)-1-methylpyrrolidin-2-yl]methyl}phenyl)ethyl]amino}pyrimidine-5-carbonitrile] gave a pIC50 against PLK1-T210D of 7.96. The pEC50 in the assay on HeLaS3 cells was 8.30.
At PLK1 (Wild Type), `C[C@H](Nc1ncc(C#N)c(-c2cnc3c(C4CC4)cccn23)n1)c1ccc([C@H](O)[C@@]2(C)CCCN2C)cc1` [Example 66, 4-(8-cyclopropylimidazo[1,2-a]pyridin-3-yl)-2-[((1S)-1-{4-[(S)-[(2R)-1,2-dimethylpyrrolidin-2-yl](hydroxy)methyl]phenyl}ethyl)amino]pyrimidine-5-carbonitrile] had a pIC50 of 8.74. In addition, in the assay with HeLaS3 cells, the pEC50 is 8.54.
